In patent US7250400B2, “Peptides and derivatives thereof showing cell attachment, spreading and detachment activity” (Regen Biotech, Inc., priority 2002, dated 2007):
“Also recorded” adds a separate entry of the source.

Legend:
Assay type in all cases: cell-based
α3β1 integrin = test: Function-blocking anti-integrin antibodies on HCE cell adhesion to plates coated with EPDIM or NKDIL; conditions: plates coated with 100 μM peptide, antibodies 5 μg/ml, FIG. 9b
Experimental: Function-blocking experiments using monoclonal antibodies against various integrin subunits were carried out to examine whether α3β1 integrin, known as a surface receptor of βig-h3, would be involved in the cell adhesion mediated by the synthetic peptides EPDIM (SEQ ID NO:3) and NKDIL (SEQ ID NO:2). HCE was preincubated at 37° C. for 30 mm in the presence of each of the monoclonal antibodies (5 μg/ml) against different types of integrins. The preincubated cells were transferred onto plates precoated with 100 μM EPDIM (SEQ ID NO:3) or 100 μM NKDIL (SEQ ID NO:2) and then incubated further at 37° C. for 1 hour, followed by the quantitative analysis with hexosaminidase substrate as in Example 1-2.

HCE cells [1] = test: Cell adhesion of HCE cells to surfaces coated with synthetic peptides; conditions: plates coated with peptide at 0-120 μM, HCE cells 37° C. 1 hour, FIG. 9a
Experimental: (§1) The recombinant βig-h3 fas-1 domain proteins prepared above were assayed for cell attachment activity. First, the recombinant βig-h3 proteins were let to adhere to the bottoms of 96-well microculture plates (Falcon) by incubation at 37° C. for 1 hour and blocked with PBS containing 0.2% BSA. HCE cells were suspended in culture media at a density of 2×10^5 cells/ml. 0.1 ml of the cell suspension was added to each well of the plates coated with the recombinant proteins. Following incubation at 37° C. for 1 hour, unattached cells were removed by washing with PBS. Attached cells were incubated for 1 hour at 37° C. in 50 mM citrate buffer, pH 5.0, containing 3.75 mM p-nitrophenol-N-acetyl 1-β-D-glycosaminide as a hexosaminidase substrate and 0.25% Triton X-100, followed by the addition of 50 mM glycine buffer, pH 10.4, containing 5 mM EDTA to block the enzyme activity. A measurement was made of absorbance at 405 nm in a Multiskan MCC/340 microplate reader.
An experiment was carried out to determine whether each of the synthetic peptides is able to mediate cell adhesion. Well plates were coated with each peptide at concentrations of 0, 20, 40, 60, 80, 100 and 120 μM and then incubated with HCE cells at 37° C. for 1 hour. The attached cells were quantitatively analyzed with hexosaminidase as in Example 1-2.

HCE cells [2] = test: Effect of synthetic peptides on βig-h3-mediated HCE cell adhesion; conditions: 100 μM peptide; for cell detachment activity: HCE cell adhesion to βig-h3, FIG. 8a; for inhibition of HCE cell adhesion to βig-h3: preincubation 30 min, dishes coated with 10 μg/ml βig-h3, FIG. 8a
Experimental: as §1
Effect of the peptides containing conserved sequences of fas-1 domains of βig-h3 on βig-h3-mediated cell adhesion was examined with HCE cells. Cells were preincubated for 30 min in media containing 100 μM of each of the four synthetic peptides or no peptides and transferred to plastic culture dishes coated with 10 μg/ml BSA or 10 μg/ml βig-h3. The attached cells were subjected to quantitative hexosaminidase analysis as in Example 1-2.

HCE cells [3] = test: Effect of synthetic peptides on HCE cell adhesion to various extracellular matrix proteins; conditions: 100 μM peptide; for inhibition of cell adhesion to fibronectin: plates coated with fibronectin; for inhibition of cell adhesion to fibronectin / inhibition of cell adhesion to laminin / inhibition of cell adhesion to type I collagen / inhibition of cell adhesion to type II collagen / inhibition of cell adhesion to vitronectin: FIG. 10a; for inhibition of cell adhesion to laminin: plates coated with laminin; for inhibition of cell adhesion to type I collagen: plates coated with type I collagen; for inhibition of cell adhesion to type II collagen: plates coated with type II collagen; for inhibition of cell adhesion to vitronectin: plates coated with vitronectin; for inhibition of cell adhesion to βig-h3: plates coated with βig-h3, FIG. 10a
Experimental: as §1
To determine whether the inhibitory activity of synthetic peptides EPDIM (SEQ ID NO:3 and NKDIL (SEQ ID NO:2) against cell adhesion is specific to βig-h3, effects of the synthetic peptides on cell adhesion to various matrix proteins were examined. HCE cells were preincubated in media added with 100 μM of the synthetic peptide EPDIM (SEQ ID NO:3) or NKDIL (SEQ ID NO:2) or none of them and then applied to plates coated with various matrix proteins, including βig-h3, fibronectin, laminin, vitronectin, type I and type II collagen. After 1 hour of incubation, the attached cells were quantitatively analyzed with hexosaminidase as in Example 1-2.

HCE cells [4] = test: Inhibition of HCE cell adhesion to βig-h3, fibronectin and laminin at various concentrations of EPDIM; conditions: EPDIM 0-1,200 μM, FIG. 10b
Experimental: as §1
HCE cells were incubated in media containing the synthetic peptide EPDIM (SEQ ID NO:3) at concentrations of 0, 200, 400, 600, 800, 1,000 and 1,200 μM and applied to plates coated with βig-h3, fibronectin and laminin. Following incubation for 1 hour, the attached cells were quantitatively analyzed with hexosaminidase as in Example 1-2.

HCE cells [5] = test: Cell attachment activity of recombinant βig-h3 fas-1 domain proteins coated on plates (hexosaminidase assay); conditions: HCE cells on plates coated with the recombinant protein, 37° C. 1 hour, FIG. 2
Experimental: as §1

HCE cells [6] = test: Cell attachment activity of substitution mutants of the 4th fas-1 domain of βig-h3; conditions: HCE cells on plates coated with the mutant protein, 37° C. 1 hour, FIG. 6
Experimental: as §1
Examination was made of the cell attachment activity of the mutated proteins wherein the Pro616, Asp617 and Ile618 of βigh3 D-IV were substituted, in combination, with Ser, Ala and Ser, respectively, that is, βigh3 D-IV-sDI, βigh3 D-IV-Pal, βigh3 D-IV-PDs, and βigh3 D-IV-sas. To this end, HCE cells were incubated at 37° C. for 1 hour in well plates coated with the mutant proteins, followed by subjecting the attached cells to the hexosaminidase substrate as in Example 1-2.

α3β1 integrin, sequence (P26006 33-872 limits assumed): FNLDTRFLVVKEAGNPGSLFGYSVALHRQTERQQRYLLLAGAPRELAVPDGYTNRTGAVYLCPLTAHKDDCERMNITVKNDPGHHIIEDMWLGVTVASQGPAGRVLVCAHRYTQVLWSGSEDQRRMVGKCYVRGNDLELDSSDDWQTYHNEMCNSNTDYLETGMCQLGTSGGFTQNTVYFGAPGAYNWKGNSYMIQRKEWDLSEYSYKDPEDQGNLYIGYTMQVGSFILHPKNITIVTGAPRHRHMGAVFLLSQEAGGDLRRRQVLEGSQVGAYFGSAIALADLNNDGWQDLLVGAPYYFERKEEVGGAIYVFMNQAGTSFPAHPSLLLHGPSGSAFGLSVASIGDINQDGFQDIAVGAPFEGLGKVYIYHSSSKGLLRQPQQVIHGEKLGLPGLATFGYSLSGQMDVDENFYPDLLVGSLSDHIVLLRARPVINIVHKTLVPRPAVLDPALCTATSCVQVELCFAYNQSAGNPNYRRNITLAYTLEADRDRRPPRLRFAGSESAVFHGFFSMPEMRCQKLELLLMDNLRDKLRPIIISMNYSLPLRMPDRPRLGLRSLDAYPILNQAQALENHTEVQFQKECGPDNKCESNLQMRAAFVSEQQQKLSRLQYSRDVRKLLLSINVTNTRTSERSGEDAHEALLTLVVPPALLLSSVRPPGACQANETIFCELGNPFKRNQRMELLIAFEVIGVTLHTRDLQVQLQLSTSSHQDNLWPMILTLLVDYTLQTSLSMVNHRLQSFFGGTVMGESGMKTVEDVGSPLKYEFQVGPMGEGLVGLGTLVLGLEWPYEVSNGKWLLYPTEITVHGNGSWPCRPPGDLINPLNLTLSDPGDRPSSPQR
α3β1 integrin, sequence (P26006 876-1051 limits assumed): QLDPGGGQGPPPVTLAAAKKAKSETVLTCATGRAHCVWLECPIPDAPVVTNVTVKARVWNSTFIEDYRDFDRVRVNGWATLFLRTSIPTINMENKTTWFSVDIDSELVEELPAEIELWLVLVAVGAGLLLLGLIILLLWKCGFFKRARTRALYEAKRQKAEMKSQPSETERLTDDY
α3β1 integrin, sequence (P05556 21-798, further chain): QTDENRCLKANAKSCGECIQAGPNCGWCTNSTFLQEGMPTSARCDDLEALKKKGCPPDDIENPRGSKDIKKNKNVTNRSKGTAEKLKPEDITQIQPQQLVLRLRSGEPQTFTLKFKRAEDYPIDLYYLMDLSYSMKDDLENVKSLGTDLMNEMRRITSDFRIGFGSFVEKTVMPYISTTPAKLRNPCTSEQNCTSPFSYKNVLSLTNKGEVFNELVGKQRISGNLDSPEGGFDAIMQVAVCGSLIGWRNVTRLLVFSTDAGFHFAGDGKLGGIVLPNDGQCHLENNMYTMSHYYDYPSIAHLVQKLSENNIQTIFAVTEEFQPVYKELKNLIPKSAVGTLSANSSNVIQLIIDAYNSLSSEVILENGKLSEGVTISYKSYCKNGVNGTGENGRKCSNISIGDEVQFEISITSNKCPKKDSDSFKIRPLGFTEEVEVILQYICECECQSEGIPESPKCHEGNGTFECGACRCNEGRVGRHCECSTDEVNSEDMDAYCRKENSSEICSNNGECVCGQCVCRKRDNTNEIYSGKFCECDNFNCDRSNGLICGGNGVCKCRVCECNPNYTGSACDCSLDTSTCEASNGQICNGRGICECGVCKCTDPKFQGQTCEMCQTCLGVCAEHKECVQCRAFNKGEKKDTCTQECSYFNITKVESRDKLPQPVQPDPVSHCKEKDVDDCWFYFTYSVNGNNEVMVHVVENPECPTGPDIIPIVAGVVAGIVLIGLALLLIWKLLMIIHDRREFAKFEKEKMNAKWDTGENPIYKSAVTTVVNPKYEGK

Molecule	ability to mediate cell adhesion (HCE cells [1])	cell detachment activity (HCE cells [2])	inhibition of HCE cell adhesion to βig-h3 (HCE cells [2])	cell attachment and spreading activity (HCE cells [5])	cell attachment activity (HCE cells [6])	other results
NKDIL [synthetic peptide, a.a]	capable of mediating cell adhesion in dose-dependent manners; also recorded: mediate cell adhesion in dose-dependent manners	very excellent cell detachment effect; also recorded: excellent cell detachment activity	significant suppression of the cell attachment activity; also recorded: significantly blocked			α3β1 integrin as receptor in peptide-mediated cell adhesion (α3β1 integrin): revealed to act as a receptor; inhibition of cell adhesion to fibronectin (HCE cells [3]): weakly inhibited; inhibition of cell adhesion to laminin (HCE cells [3]): efficiently blocked; inhibition of cell adhesion to type I collagen (HCE cells [3]): did not affect; inhibition of cell adhesion to type II collagen (HCE cells [3]): did not affect; inhibition of cell adhesion to vitronectin (HCE cells [3]): did not affect; inhibition of cell adhesion to βig-h3 (HCE cells [3]): efficiently blocked
KADHH [synthetic peptide, a.a]	low in activity compared to NKDIL	relatively very low cell detachment effects	weak suppression of cell adhesion; also recorded: weakly inhibited			
EPDIM [synthetic peptide, a.a]	capable of mediating cell adhesion in dose-dependent manners; also recorded: mediate cell adhesion in dose-dependent manners	very excellent cell detachment effect; also recorded: excellent cell detachment activity	significant suppression of the cell attachment activity; also recorded: significantly blocked			α3β1 integrin as receptor in peptide-mediated cell adhesion (α3β1 integrin): revealed to act as a receptor; inhibitory effect on cell adhesion to fibronectin (HCE cells [4]): dose-dependent; inhibitory effect on cell adhesion to laminin (HCE cells [4]): dose-dependent; inhibitory effect on cell adhesion to βig-h3 (HCE cells [4]): dose-dependent; inhibition of cell adhesion to fibronectin (HCE cells [3]): weakly inhibited; inhibition of cell adhesion to laminin (HCE cells [3]): efficiently blocked; inhibition of cell adhesion to type I collagen (HCE cells [3]): did not affect; inhibition of cell adhesion to type II collagen (HCE cells [3]): did not affect; inhibition of cell adhesion to vitronectin (HCE cells [3]): did not affect; inhibition of cell adhesion to βig-h3 (HCE cells [3]): efficiently blocked
DEMPI [reference compound]	not active in cell adhesion	failed to show; also recorded: low cell detachment activity	did not affect cell adhesion			
βigh3-D-II: recombinant His-tagged 2nd fas-1 domain of human βig-h3, amino acid residues 242 to 372 (protein) NIQQIIEIEDTFETLRAAVAASGLNTMLEGNGQYTLLAPTNEAFEKIPSETLNRILGDPEALRDLLNNHILKSAMCAEAIVAGLSVETLEGTTLEVGCSGDMLTINGKAIISNKDILATNGVIHYIDELLIHHHHHH				comparable to the activity of wild type βig-h3		
βigh3-D-I: recombinant His-tagged 1st fas-1 domain of human βig-h3, amino acid residues 133 to 236 (protein) EGPGSFTIFAPSNEAWASLPAEVLDSLVSNVNIELLNALRYHMVGRRVLTDELKHGMTLTSMYQNSNIQIHHYPNGIVTVNCARLLKADHHATNGVVHLIDKVIHHHHHH				weak activity		
βigh3-D-IV: recombinant His-tagged 4th fas-1 domain of human βig-h3, amino acid residues 501 to 632 (protein) MGTVMDVLKGDNRFSMLVAAIQSAGLTETLNREGVYTVFAPTNEAFRALPPRERSRLLGDAKELANILKYHIGDEILVSGGIGALVRLKSLQGDKLEVSLKNNVVSVNKEPVAEPDIMATNGVVHVITNVLHHHHHH				comparable to the activity of wild type βig-h3		
βigh3 D-IV-sDI: βigh3 D-IV mutant having Ser instead of Pro616 (protein) MGTVMDVLKGDNRFSMLVAAIQSAGLTETLNREGVYTVFAPTNEAFRALPPRERSRLLGDAKELANILKYHIGDEILVSGGIGALVRLKSLQGDKLEVSLKNNVVSVNKEPVAESDIMATNGVVHVITNVLHHHHHH					comparable to that of the wild type control	
βigh3 D-IV-PDs: βigh3 D-IV mutant having Ser instead of Ile618 (protein) MGTVMDVLKGDNRFSMLVAAIQSAGLTETLNREGVYTVFAPTNEAFRALPPRERSRLLGDAKELANILKYHIGDEILVSGGIGALVRLKSLQGDKLEVSLKNNVVSVNKEPVAEPDSMATNGVVHVITNVLHHHHHH					significantly blocked cell adhesion	
βigh3 DIV-sas: βigh3 D-IV mutant in which the three amino acids Pro616, Asp617, Ile618 were mutated to Ser, Ala, Ser (protein) MGTVMDVLKGDNRFSMLVAAIQSAGLTETLNREGVYTVFAPTNEAFRALPPRERSRLLGDAKELANILKYHIGDEILVSGGIGALVRLKSLQGDKLEVSLKNNVVSVNKEPVAESASMATNGVVHVITNVLHHHHHH					far lower than the control	
βigh3 D-IV-Pal: βigh3 D-IV mutant having Ala instead of Asp617 (protein) MGTVMDVLKGDNRFSMLVAAIQSAGLTETLNREGVYTVFAPTNEAFRALPPRERSRLLGDAKELANILKYHIGDEILVSGGIGALVRLKSLQGDKLEVSLKNNVVSVNKEPVAEPAIMATNGVVHVITNVLHHHHHH					significantly blocked cell adhesion	
βigh3-D-III: recombinant His-tagged 3rd fas-1 domain of human βig-h3, amino acid residues 373 to 501 (protein) PDSAKTLFELAAESDVSTAIDLFRQAGLGNHLSGSERLTLLAPLNSVFKDGTPPIDAHTRNLLRNHIIKDQLASKYLYHGQTLETLGGKKLRVFVYRNSLCIENSCIAAHDKRGRYGTLFTMDRVLTPPHHHHHH				almost no activity		
